Experiments:
[1] = biological target: hERG (human Ether-a-go-go-Related Gene) (Homo sapiens, UniProt Q12809); assay: hERG
[2] = biological target: T1, protein arginine methyltransferase (PRMT) (Homo sapiens, UniProt Q86X55); assay: Affinity purification and STRING analysis-based proteomics with SH-SY5Y cell lysates; assay type: binding; conditions: compound clicked to agarose magnetic beads
T1 construct: proteins from human neuroblastoma SH-SY5Y; endogenous in cells; host or cells: SH-SY5Y human neuroblastoma cell lysate
T1 sequence (Q86X55 1-608): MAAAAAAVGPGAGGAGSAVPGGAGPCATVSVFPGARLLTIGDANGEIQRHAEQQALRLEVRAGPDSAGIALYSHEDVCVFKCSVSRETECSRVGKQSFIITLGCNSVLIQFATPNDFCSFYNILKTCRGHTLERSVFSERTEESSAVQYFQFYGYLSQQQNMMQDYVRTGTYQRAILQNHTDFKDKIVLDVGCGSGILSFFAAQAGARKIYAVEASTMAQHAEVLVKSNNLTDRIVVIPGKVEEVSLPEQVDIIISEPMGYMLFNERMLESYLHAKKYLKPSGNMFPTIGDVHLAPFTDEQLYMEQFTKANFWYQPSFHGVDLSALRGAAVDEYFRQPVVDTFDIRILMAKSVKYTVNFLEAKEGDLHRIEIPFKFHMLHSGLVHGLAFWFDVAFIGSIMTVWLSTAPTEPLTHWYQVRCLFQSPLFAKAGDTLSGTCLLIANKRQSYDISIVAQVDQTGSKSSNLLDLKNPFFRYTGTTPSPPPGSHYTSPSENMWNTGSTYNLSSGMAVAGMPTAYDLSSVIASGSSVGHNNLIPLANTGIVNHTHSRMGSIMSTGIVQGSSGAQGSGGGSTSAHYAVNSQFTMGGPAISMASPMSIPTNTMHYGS
Experimental: To assist in identification of possible protein interactions of our SirT1 enhancers, affinity purification and STRING analysis-based proteomics was used, as described in Supplementary Methods. […] To assess effects of various PRMTs 1, 4, 5, 7 and 8 on SirT1, N2a-E4 cells were transfected with each of these PRMTs as described in Supplementary Methods. […]
supernatants were transferred to new tubes and lyophilized. Samples were reconstituted in 100 µL of 50/50/0.1 (Water/Acetonitrile/Formic Acid) prior to analysis via liquid chromatography-tandem mass spectrometry (LC-MS/MS).
Normalized chromatographic peak areas was plotted at each time point and the half-life (T1/2) of compound in liver microsomes was determined by using the trendline equation to calculate the time at which compound abundance was 50% of that at timepoint 0 (T0).
Kinetic solubility was assessed by separately diluting a test compound solution (10 mM, 100% DMSO) into the aqueous buffer (PBS pH 7.4) and DMSO at 100 μM, 100 μL total volume.
The solutions were then incubated at 37°C for 90 min and centrifuged (16000xg, 5 min). An aliquot (50 µL) of each supernatant was analyzed by LC-MS/MS.
Five standard concentrations (100, 10, 1, 0.1, and 0, DMSO) in duplicates were incubated at 37°C for 90 min and centrifuged (16000xg, 5 min). Aliquots (50 µL) of supernatant were analyzed by LC-MS/MS to create the standard curve.
Table S2. […]

Sequence of hERG (human Ether-a-go-go-Related Gene) (Q12809 whole entry): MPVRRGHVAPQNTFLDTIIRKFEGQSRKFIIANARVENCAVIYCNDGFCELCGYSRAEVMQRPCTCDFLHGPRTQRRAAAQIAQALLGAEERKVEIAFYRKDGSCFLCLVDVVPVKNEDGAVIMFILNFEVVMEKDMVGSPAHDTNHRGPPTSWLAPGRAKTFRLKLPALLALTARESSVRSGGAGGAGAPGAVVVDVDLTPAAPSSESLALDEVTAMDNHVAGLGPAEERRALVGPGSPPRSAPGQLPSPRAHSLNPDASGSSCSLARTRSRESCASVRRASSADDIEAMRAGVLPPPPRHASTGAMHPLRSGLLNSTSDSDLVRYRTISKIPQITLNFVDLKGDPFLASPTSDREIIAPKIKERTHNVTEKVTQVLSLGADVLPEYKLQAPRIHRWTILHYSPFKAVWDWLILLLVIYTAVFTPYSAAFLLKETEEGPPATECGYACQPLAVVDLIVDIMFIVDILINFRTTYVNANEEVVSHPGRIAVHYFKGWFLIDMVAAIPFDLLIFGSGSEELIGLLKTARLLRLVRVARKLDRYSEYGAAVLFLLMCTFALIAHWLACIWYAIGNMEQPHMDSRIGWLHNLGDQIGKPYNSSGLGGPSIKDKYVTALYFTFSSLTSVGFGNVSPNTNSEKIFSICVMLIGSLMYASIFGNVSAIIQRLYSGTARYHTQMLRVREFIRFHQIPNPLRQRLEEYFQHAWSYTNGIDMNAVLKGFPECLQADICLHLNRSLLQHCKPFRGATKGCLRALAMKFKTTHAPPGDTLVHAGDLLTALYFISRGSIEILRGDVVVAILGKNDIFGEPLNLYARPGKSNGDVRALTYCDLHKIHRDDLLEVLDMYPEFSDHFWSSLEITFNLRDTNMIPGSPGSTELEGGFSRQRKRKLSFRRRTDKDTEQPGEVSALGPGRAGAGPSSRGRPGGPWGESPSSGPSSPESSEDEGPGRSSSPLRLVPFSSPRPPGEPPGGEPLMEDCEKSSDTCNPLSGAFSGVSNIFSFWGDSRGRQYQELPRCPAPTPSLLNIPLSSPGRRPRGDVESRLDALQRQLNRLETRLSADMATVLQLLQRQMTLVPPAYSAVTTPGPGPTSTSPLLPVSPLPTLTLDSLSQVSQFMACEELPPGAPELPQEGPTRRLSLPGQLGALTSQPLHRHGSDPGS

Row | Structure (SMILES) | EC50 [1] [µM] | protein interaction found by affinity purification [2]
1 | CC(N)C(=O)OC(C)(C)Cc1ccncc1 (centres unmarked) [DDL-218] | > 10 | 
2 | C#Cc1ccc(CC(C)(C)NC(=O)[C@H](C)N)cc1 [DDL-220] |  | a protein arginine methyltransferase (PRMT) interacts with DDL-220

From publication PMC12019328, “Discovery of an ApoE4-targeted small-molecule SirT1 enhancer for the treatment of Alzheimer’s disease” (Scientific Reports, 2025)
